Test results published in ChEMBL document CHEMBL1144444, “Predictive three-dimensional quantitative structure-activity relationship of cytochrome P450 1A2 inhibitors” (J Med Chem, 2005).

Target: T1, Cytochrome P450 1A2 (Homo sapiens, UniProt P05177)
T1 sequence (P05177 whole entry): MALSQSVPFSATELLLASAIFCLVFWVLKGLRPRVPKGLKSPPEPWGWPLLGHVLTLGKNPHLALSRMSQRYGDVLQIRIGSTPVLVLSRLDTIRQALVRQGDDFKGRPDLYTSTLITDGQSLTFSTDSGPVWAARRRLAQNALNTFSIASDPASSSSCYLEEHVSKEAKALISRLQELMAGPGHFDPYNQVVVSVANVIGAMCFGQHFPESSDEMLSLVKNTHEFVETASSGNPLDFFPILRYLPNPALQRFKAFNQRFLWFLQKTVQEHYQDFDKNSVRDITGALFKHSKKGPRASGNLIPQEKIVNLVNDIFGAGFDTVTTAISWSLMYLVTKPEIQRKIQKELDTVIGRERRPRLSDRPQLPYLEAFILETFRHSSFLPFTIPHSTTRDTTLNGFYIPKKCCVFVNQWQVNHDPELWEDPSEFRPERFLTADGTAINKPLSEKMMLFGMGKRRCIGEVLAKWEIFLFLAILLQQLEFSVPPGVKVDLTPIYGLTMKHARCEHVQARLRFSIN
Assay: Inhibitory concentration against recombinant human cytochrome P450 1A2

[1] = human, recombinant human CYP1A2

Compound | IC50 [µM] | IC50 [1] [µM]
Cc1cc(C)c2ccccc2n1 | 2.4 | 
Cc1cccc2c(C)cccc12 | 42 | 
Cc1cccc2ccccc12 | 110 | 
CCc1ccc2ccccc2c1 | 19 | 
CCCCC1CCCCC1 [BUTYLCYCLOHEXANE] | 55 | 
c1ccc2c(c1)CCO2 | 1200 | 
Cc1ccc(C)c2ccccc12 | 3.6 | 
Cc1ccc2ccc(C)cc2c1 | 65 | 
c1ccc2ccccc2c1 | 700 | 
CN1CCC[C@@H]1c1cccnc1 [R-NICOTINE] | 4100 | 
Cc1ccc(CCN)cc1 | 14 | 
COC1=CC(=O)OC1 |  | > 40000
Cc1ccc2cccc(C)c2c1 | 7.5 | 
COc1ccc(C=O)cc1 | 270 | 
c1ccc(-c2ccccc2)cc1 [BIPHENYL] | 160 | 
Cc1cc(C)oc(=O)c1 | 4500 | 
O=C1Cc2ccccc2O1 | 260 | 
Clc1ccccc1-c1ccccc1 | 230 | 

Compound | IC50 [µM] | IC50 [1] [µM]
Cc1ccc2c(C)cccc2c1 | 25 | 
Clc1ccc(-c2ccccc2)cc1 | 49 | 
CCCCc1ccccc1 [BUTYLBENZYL] | 3700 | 
Cc1cnc2ccccc2c1 | 13 | 
Cc1cc2ccccc2cn1 | 21 | 
CN1C(=O)CCC1c1cccnc1 (single isomer, unassigned) [COTININE] | 5400 | 
Oc1cccc2ccccc12 [1-NAPHTHOL] | 3.2 | 
O=c1[nH]c2ccccc2o1 [BENZOXAZOLINONE] | 370 | 
O=C1CCC(c2ccccc2)O1 (stereo unspecified) | 2300 | 
Fc1ccc2ccccc2c1 | 49 | 
CCC1CCC(=O)O1 (stereo unspecified) | 9900 | 
Cc1ccc2ccccc2n1 [QUINALDINE] | 40 | 
O=C1CCCCCO1 |  | > 40000
c1ccc2c(c1)CCC2 | 550 | 
Cc1ccc2ccccc2c1 | 120 | 
Oc1ccc2ccccc2c1 [BETANAPHTHOL] | 17 | 
Clc1cccc2ccccc12 | 50 | 
Cc1ccc2cc(C)ccc2c1 | 52 | 
